The text below walks through data of patent US9561210B2, “Therapeutic agent for ocular disease” (AskAt Inc., priority 2013, dated 2017).

The test system of assay [1] is human retinal microvascular endothelial cells (HRMEC). Kind of assay: VEGF-induced HRMEC proliferation study. It is filed as cell-based. How it is done: VEGF-Induced Human Retinal Microvascular Endothelial Cells (HRMEC) Proliferation Study
VEGF is a factor which promotes neovascularization and is thought to be one of the causes of development or progression of age-related macular degeneration (Prog. Retinal Eye Res., 22 (1), 1-29 (2003)). Therefore, the inhibitory effect of the compounds of the invention against VEGF-induced cell proliferation is assessed by using human retinal vascular endothelial cells (HRMEC).
HRMEC are seeded in 96-well plates at 2.0×10^3 cells/well, and is cultured under the conditions of 5% CO2/95% air for 24 hours. Then the culture medium is exchanged with CSC medium containing 10% fetal bovine serum and the cells are cultured for 24 hours. The culture broth is exchanged with vehicle medium or study medium containing the compound of the invention at 0.1, 1.0, 10, or 100 microM. After preincubation for 1 hour, VEGF-A solution is added to be a concentration of 10 ng/ml, and the cells cultured for 24 hours. The culture broth without adding VEGF-A solution is also treated in the same manner. Then to the culture broth is added CCK-8, and the cells are cultured for 3 hours, then the absorbance (OD492) is measured.
In accordance with the following formula, the cell proliferation inhibition rate (%) of each compound-treated group is calculated. The number of examples of each group is six. Cell proliferation inhibition rate (%)=([…])×100 [equation] BO: absorbance of vehicle-treated group BX: absorbance of compound-treated group BN: absorbance of non-treated group

The test system of assay [2] is choroidal neovascularization. Kind of assay: Laser-induced choroidal neovascularization (CNV) model. It is filed as in vivo, male C57BL/6J mouse. As to conditions: in comparison to the vehicle-treated group. How it is done:
Laser-Induced Choroidal Neovascularization (CNV) Model A male C57BL/6J mouse is used. Mydrin P ophthalmic solution (registered trademark, Santen Pharmaceutical) is instilled into the right eye of the mouse to cause mydriasis. Animals are anesthetized, and laser irradiation is performed on around the circumference of the optic disk with eight equally space using a laser photocoagulation apparatus. After photocoagulation, intravitreal administration of drugs to the right eye (administering 2 microL of a solution of 60 microM and 600 microM using a solvent obtained by mixing 0.1N NaOH and pH 7.2 PBS containing 1.5×10^-3N HCl, at the ratio of 16:84) or oral administration/subcutaneous administration/intraperitoneal administration is conducted. After instillation of […] (registered trademark, Daiichi Sankyo) ophthalmic solution 0.5% into the right eye, the ocular fundus photography is promptly performed using an ocular fundus camera. […] Choroidal flat mounts specimens are observed using a confocal laser scanning microscope, and the CNV area of the image is calculated using the analysis software OLYMPUS FLUOVIEW FV1000.

Molecules are shown by their SMILES.

On to `CC(C)(C)c1cc2c(cc1Cl)C=C(C(=O)O)[C@@H](C(F)(F)F)O2` [Compound A, (S)-6-chloro-7-(1,1-dimethylethyl)-2-trifluoromethyl-2H-1-benzopyran-3-carboxylic acid], for which the “effect on the proliferation of HRMEC” value in assay [1] (Compound A alone, without VEGF-A, FIG. 1 left side) is “no effect”. Further, the “inhibition of the proliferation of HRMEC induced by VEGF-A” value in assay [1] (VEGF-A 10 ng/ml, 24 hours, compound at 0.1, 1.0, 10, or 100 microM, FIG. 1 right side) is recorded as “inhibits the proliferation of HRMEC induced by VEGF-A in a dose-dependent manner”. The “inhibition of VEGF-A-induced cell proliferation” value in assay [1] (at 10 to 100 microM, VEGF-A 10 ng/ml) is reported as “inhibits the cell proliferation to control levels”. Also, the CNV area entry in assay [2] (choroidal flat mount, day 15 after laser, FIG. 2) is listed as “significantly reduced”. For the same molecule, in assay [2] (histopathological specimens, FIG. 3), the “CNV area (pathological image)” value is recorded as “significantly reduced”.
